The results in this text go back to patent publication US12173089B2, “Inhibition of pulmonary fibrosis with nutlin-3A and peptides” (BOARD OF REGENTS, THE UNIVERSITY OF TEXAS SYSTEM, priority 2013, dated 2024).

For assay [1], the system named is BLM-treated mice. Kind of assay: Established lung fibrosis in BLM-treated mice (CT scanning, lung function, trichrome staining, hydroxyproline, desmosine). The class given is in vivo. As to conditions: for established lung fibrosis: WT mice, results reported herein and elsewhere. Here is the method: FIGS. 10A-10D. Nutlin-3a (NTL) inhibits lung fibrosis in BLM-treated mice. Mice were exposed to BLM for 14 d to induce lung fibrosis. Saline treated mice were used as fibrosis controls. After 14 d, mice exposed to BLM were injected IV with either vehicle or nutlin-3 a (10 mg/kg body weight) (Zhang F et al. Drug Metab Dispos 39: 15-21, 2011) to determine whether nutlin-3 a inhibited established lung fibrosis. On day 21 after BLM injury, mice underwent CT scanning to assess the extent of fibrosis (FIG. 10A). One representative example is shown (n=9). (FIG. 10B) Lung compliance and resistance were measured in the same mice using the Flexivent system to assess improvement in lung function after nutlin-3 a treatment (n=9). (FIG. 10C) Lung sections were subjected to trichrome staining to assess lung architecture and collagen deposition as an indication of lung fibrosis. (FIG. 10D) Whole lung homogenates were analyzed for total collagen (hydroxyproline) and desmosine content as an independent assessment of changes in ECM.
FIGS. 11A-11D. CSP-4 inhibits established lung fibrosis and improves lung function. Mice were exposed to BLM to induce pulmonary fibrosis. After 14 d, the mice were injected IV with either vehicle or 1.5 mg/kg body weight of CSP-4 or control peptide (“CP”) of scrambled sequence. On d 21 after BLM injury, mice underwent CT scanning examine CSP-4 inhibition of established lung fibrosis (FIG. 11A). One representative example is shown (n=9). (FIG. 11B): Lung volumes were measured in the same mice (n=9) using quantitative CT renditions. (FIG. 11C): Lung sections were subjected to trichrome and H&E staining (not shown) to assess collagen deposition as an indicator of lung fibrosis. (FIG. 11D) Analysis of whole lung homogenates for total hydroxyproline content.
Mice exposed to BLM (or saline in controls) for 14 d to induce lung fibrosis were injected IV with nutlin-3a (10 mg/kg body weight) (Zhang et al, supra) or a vehicle control to determine and the effect on established lung fibrosis was examined. Fibrosis was evaluated by CT scanning and lung function (compliance and resistance) were measured using the Flexivent system. Lung sections were subjected to trichrome staining and H & E staining (the latter not shown) to assess lung architecture and collagen deposition as an indication of fibrosis. Finally, whole lung homogenates were analyzed for total collagen (hydroxyproline) and desmosine content (Bhandary Y P et al, Am J Physiol: Lung Cell Mol Physiol 302:L463-73, 2012; Bhandary Y P et al, Am J Pathol, 183: 131-43 2013) as an independent assessment of the ECM. […] Oral administration of Nutlin-3a 14 days after BLM injury likewise inhibited pulmonary fibrosis in mice.
Mice were exposed to BLM to induce pulmonary fibrosis. After 14 d, the mice were injected IV with either vehicle or 1.5 mg/kg body weight of CSP-4 (SEQ ID NO: 1) or control peptide (scrambled sequence of same amino acids; CP, SEQ ID NO:5) at 1.5 mg/kg body weight or vehicle was injected IV into mice exposed to BLM 14 days earlier. One week later, mice were tested by CT scanning to evaluate lung fibrosis. Lung volume was measured in the same mice using quantitative CT renditions.

The subject of assay [2] is FL(IPF)-fibroblasts. In words: Immunoblot of FL-fibroblast lysates for Col-I, PAI-1, p53 and uPA after exposure to nutlin-3a or CSP-4. The settings on record: nutlin-3a 10 μM, CSP-4 10 nM, 48 hrs. The class given is cell-based, human. Here is the method:
FIGS. 8A-8C. Role of p53-fibrinolytic system cross-talk in nutlin-3a (NTL) or CSP-4-mediated inhibition of col-I expression in FL(IPF)-fibroblasts. (FIG. 8A) FL-fibroblasts were exposed to PBS, nutlin-3a (10 uM), CSP-4 (10 nM) or control peptide (CP) for 48 h. The cell lysates were immunoblotted for the expression of Col-I, PAI-1, p53, uPA and β-actin. (FIG. 8B) FL-fibroblasts cultured in 12 well plates in DMEM media were exposed to vehicle (PBS) or nutlin-3a, CSP-4 or CP. After 3 d, cells were detached and counted. (FIG. 8C) FL-fibroblasts were transduced with empty adenovirus vector alone (Ad-EV) or Ad-vector expressing p53 (Ad-p53), PAI-1 (Ad-PAI-1) or caveolin-1 (Ad-Cav-1). After 48 h, cell lysates were immunoblotted for Col-I, p53, PAI-1, uPA and β-actin.
FL-fibroblasts were exposed to PBS (control), nutlin-3a (10 μM), CSP-4 (10 nM) or CP for 48 hrs. Lysates were immunoblotted for the expression of Col-I, PAI-1, p53, and uPA. Cultured FL- were exposed to vehicle (PBS) or nutlin-3a, CSP-4 or CP and counted to assess proliferation. […] The process involves induction of p53 and PAI-1 expression, and concurrent inhibition of uPA.
For orientation: Immunoblotting shows a protein as a band on a membrane.

Assay [3] has as its system FL-fibroblasts. Kind of assay: Deletional analysis of CSP: peptide fragments tested on FL-fibroblasts for changes in p53, uPA, PAI-1 and col-I. Format: cell-based, human. Here is the method: FIGS. 6A-6D. CSP (CSP4) augments p53 expression via induction of miR-34a in FL(IPF)-fibroblasts. (FIG. 6A) NL- and FL-fibroblasts (n=3) were treated with PBS, CSP-4 (CSP) or control peptide (CP). RNA was analyzed for miR-34a by real-time PCR. (FIG. 6B) FL-fibroblasts were treated with PBS or CSP or CP with or without miR-34a antisense (miR-34a-AS) or pre-miR-34a or control miRNA (Ctr-miR). Conditioned media (CM) were immunoblotted for PAI-1 and lysates (CL) for p53 and β-actin. (FIG. 6C) FL-fibroblasts were treated with PBS or CSP or CP in the presence or absence of miR-34a-AS, pre-miR-34a or Ctr-miR. RNA was analyzed for changes in miR-34a by real-time PCR. (FIG. 6D) A series of overlapping deletions were made in CSP and these peptides were used to treat FL-fibroblasts with. The peptide sequences were CSP (SEQ ID NO:2), CSP-2: DGIWKAS (SEQ ID NO:12), CSP-3: KYWFYR (SEQ ID NO:13), CSP-4 (SEQ ID NO:1), and CP (SEQ ID NO:5). Changes in p53, uPA, PAI-1 and col-I were later assessed to identify the minimum amino acids required for the CSP effects.
A series of overlapping deletions were made in CSP and these peptide fragments were tested on FL-fibroblasts for changes in p53, uPA, PAI-1 and col-I (FIG. 6D).

In the case of `COc1ccc(C2=NC(c3ccc(Cl)cc3)C(c3ccc(Cl)cc3)N2C(=O)N2CCNC(=O)C2)c(OC(C)C)c1` (centres unmarked) [nutlin-3a, 4-2-4,5-dihydro-1H-imidazole-1-piperazin-2-one], the “effect on established lung fibrosis (CT, compliance and resistance, trichrome, hydroxyproline, desmosine)” value in assay [1] (IV 10 mg/kg body weight 14 d after BLM, read on day 21) was “beneficial effect”. Further, the established lung fibrosis entry in assay [1] (IV or oral administration beginning 14 d after BLM) was “mitigates”. Moreover, in assay [1] (oral administration 14 days after BLM injury), the pulmonary fibrosis entry is reported as “inhibited”. In assay [2], the PAI-1 expression result was “induction”, the col-I expression entry was “inhibited”, the p53 expression result is “induction” and the uPA expression entry is “inhibition”.

On to FTTFTVT [CSP-4], for which, in assay [3], the “activity in deletional analysis of the CSP 20mer (changes in p53, uPA, PAI-1 and col-I)” value is given as “had the activity of the full length peptide”. For the same molecule, the established lung fibrosis result in assay [1] (IP or IV administration beginning 14 d after BLM) is “mitigates”. Further, the “BLM-induced lung fibrosis (CT, lung volume, trichrome and H&E, hydroxyproline)” value in assay [1] (IV 1.5 mg/kg body weight 14 d after BLM, read one week later) is reported as “inhibited”. In assay [2], the PAI-1 expression entry was “induction”, the col-I expression result is reported as “inhibited”, the p53 expression result is “induction” and the uPA expression entry is listed as “inhibition”.
